Target: T1, full length human farnesoid X receptor (Homo sapiens, UniProt Q96RI1)
T1 construct: CMX-farnesoid X receptor (full length human farnesoid X receptor); expressed in transfected cells; host or cells: CV-1 African Green Monkey Kidney cells
T1 sequence (Q96RI1 1-472 isoform Q96RI1-2): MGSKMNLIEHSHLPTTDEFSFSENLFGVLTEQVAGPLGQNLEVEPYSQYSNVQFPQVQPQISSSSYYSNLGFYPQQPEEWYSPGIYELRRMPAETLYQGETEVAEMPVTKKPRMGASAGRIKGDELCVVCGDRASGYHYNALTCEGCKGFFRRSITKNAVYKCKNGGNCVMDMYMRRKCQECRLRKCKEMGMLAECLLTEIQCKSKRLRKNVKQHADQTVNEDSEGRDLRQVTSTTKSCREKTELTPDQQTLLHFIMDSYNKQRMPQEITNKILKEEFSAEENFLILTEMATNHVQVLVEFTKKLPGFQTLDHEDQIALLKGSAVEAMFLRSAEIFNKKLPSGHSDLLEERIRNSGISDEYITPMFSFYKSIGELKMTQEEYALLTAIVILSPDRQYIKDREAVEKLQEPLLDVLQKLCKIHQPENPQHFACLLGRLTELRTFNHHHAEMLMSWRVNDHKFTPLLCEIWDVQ
T1 sequence (P19793 1-462 partner): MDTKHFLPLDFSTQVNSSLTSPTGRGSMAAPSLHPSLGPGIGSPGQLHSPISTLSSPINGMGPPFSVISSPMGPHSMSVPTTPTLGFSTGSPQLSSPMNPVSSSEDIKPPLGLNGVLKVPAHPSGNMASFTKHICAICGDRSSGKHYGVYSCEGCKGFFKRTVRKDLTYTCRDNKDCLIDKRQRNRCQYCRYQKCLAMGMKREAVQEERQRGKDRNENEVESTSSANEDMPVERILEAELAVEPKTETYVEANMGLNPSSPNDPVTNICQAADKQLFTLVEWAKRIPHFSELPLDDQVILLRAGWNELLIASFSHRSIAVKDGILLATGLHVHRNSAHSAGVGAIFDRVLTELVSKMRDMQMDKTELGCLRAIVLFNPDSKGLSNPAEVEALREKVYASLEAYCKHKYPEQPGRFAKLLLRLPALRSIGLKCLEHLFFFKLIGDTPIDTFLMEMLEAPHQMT
Experiment: farnesoid X receptor/ECREx7 co-transfection assay
Type: cell-based
Details: CV-1 cells, agonist mode
Protocol: The basic co-transfection protocol for measuring the farnesoid X receptor activity is as follows. CV-1 African Green Monkey Kidney cells were plated 24 hours before transfection to achieve approximately 70-80 percent confluency. Cells were transfected with the following expression vectors, CMX-farnesoid X receptor (full length human farnesoid X receptor), CMX-RXRα (full length human RXR), Luc12 ((ECREx7-Tk-Luciferase) luciferase reporter gene construct. (See WO 00/76523, Venkateswaran et al., (2000) J. Biol. Chem. 275 14700-14707). A CMX-β-Galactosidase expression vector was used as a transfection control. The transfection reagent used was DOTAP (Boehringer Mannheim). Cells were incubated with the DOTAP/DNA mixture for 5 hours after which the cells were harvested and plated onto either 96 well or 384 well plates containing the appropriate concentration of test compound. The assay was allowed to continue for an additional 18-20 hours, after which the cells were lysed, with lysis buffer (1% triton X 100, 10% glycerol, 5 mM Dithiothreitol, 1 mM EGTA, 25 mM Tricine, pH 7.8) and the luciferase activity measured in the presence of Luciferase assay buffer (0.73 mM ATP, 22.3 mM Tricine, 0.11 mM EGTA, 0.55 mM Luciferin, 0.15 mM Coenzyme A, 0.5 mM HEPES, 10 mM Magnesium sulphate) on a standard luminomter plate reader (PE Biosystems, NorthStar Reader), using recommended operating instructions and conditions.
Both the farnesoid X receptor/ECREx7 co-transfection assay (Example 10) and the TR-FRET assay (Example 9) can be used to establish the EC50/IC50 values for potency and percent activity or inhibition for efficacy. Efficacy defines the activity of a compound relative to a high control (chenodeoxycholic acid, CDCA) or a low control (DMSO/vehicle). The dose response curves are generated from an 8 point curve with concentrations differing by ½ LOG units. Each point represents the average of 4 wells of data from a 384 well plate. The curve for the data is generated by using the equation: Y=Bottom+(Top-Bottom)/(1+10^((Log EC50−X)*HillSlope))
The EC50/IC50 is therefore defined as the concentration at which an agonist or antagonist elicits a response that is half way between the Top (maximum) and Bottom (baseline) values. The EC50/IC50 values represented are the averages of at least 3 independent experiments. The determination of the relative efficacy or % control for an agonist is by comparison to the maximum response achieved by chenodeoxycholic acid that is measured individually in each dose response experiment.
For the antagonist assay, CDCA is added to each well of a 384 well plate to elicit a response. The % inhibition for each antagonist is therefore a measurement of the inhibition of the activity of CDCA. In this example, 100% inhibition would indicate that the activity of CDCA has been reduced to baseline levels, defined as the activity of the assay in the presence of DMSO only.

Structure (SMILES) | EC50
CCOC(=O)c1cc2c([nH]1)C(C(=O)OC(C)C)=CN(C(=O)c1ccc(F)c(F)c1)CC2(C)C [6-(3,4-Difluoro-benzoyl)-4,4-dimethyl-1,4,5,6-tetrahydro-pyrrolo[2,3-d]azepine-2,8-dicarboxylic acid 2-ethyl ester 8-isopropyl ester] | ≤ 100 nM
CCOC(=O)C1=CN(C(=O)c2ccc(F)c(F)c2)CC(C)(C)c2ccsc21 [6-(3,4-Difluoro-benzoyl)-4,4-dimethyl-5,6-dihydro-4H-thieno[2,3-d]azepine-8-carboxylic acid ethyl ester] | ≤ 100 nM
CCOC(=O)c1cc2c(n1C)C(C(=O)OC(C)C)=CN(C(=O)c1ccc(F)c(F)c1)CC2(C)C [6-(3,4-Difluoro-benzoyl)-1,4,4-trimethyl-1,4,5,6-tetrahydro-pyrrolo[2,3-d]azepine-2,8-dicarboxylic acid 2-ethyl ester 8-isopropyl ester] | ≤ 100 nM
CCOC(=O)C1=CN(C(=O)c2ccc(F)c(F)c2)CC(C)(C)c2cc(C(=O)OCC)[nH]c21 [6-(3,4-Difluoro-benzoyl)-4,4-dimethyl-1,4,5,6-tetrahydro-pyrrolo[2,3-d]azepine-2,8-dicarboxylic acid diethyl ester] | ≤ 100 nM

Next, values leading:

EC50 | Structure (SMILES)
≤ 100 nM | CCOC(=O)C1=CN(C(=O)c2ccc(F)cc2)CC(C)(C)c2c1[nH]c1c2CCCC1 [3-(4-Fluoro-benzoyl)-1,1-dimethyl-1,2,3,6,7,8,9,10-octahydro-azepino[4,5-b]indole-5-carboxylic acid ethyl ester]
≤ 100 nM | CCOC(=O)C1CN(C(=O)c2ccc(F)cc2)CC(C)(C)c2c1[nH]c1c2CCCC1 (centres unmarked) [3-(4-Fluoro-benzoyl)-1,1-dimethyl-1,2,3,4,5,6,7,8,9,10-decahydro-azepino[4,5-b]indole-5-carboxylic acid ethyl ester]
≤ 1000 nM | CCOC(=O)C1=CN(C(=O)c2ccc(F)cc2)CCc2c1[nH]c1c2CCCC1 [3-(4-Fluoro-benzoyl)-1,2,3,6,7,8,9,10-octahydro-azepino[4,5-b]indole-5-carboxylic acid ethyl ester]

Same assay, conditions: relative to maximum response of chenodeoxycholic acid (CDCA)

efficacy | Structure (SMILES)
greater than 100% | CCOC(=O)C1=CN(C(=O)c2ccc(F)cc2)CCc2c1[nH]c1c2CCCC1 [3-(4-Fluoro-benzoyl)-1,2,3,6,7,8,9,10-octahydro-azepino[4,5-b]indole-5-carboxylic acid ethyl ester]
